This is an account of results in patent US6469149B1 (priority 1997, dated 2002).

In assay [1] the target is T1, L-galactono-γ-lactone dehydrogenase (Brassica oleracea, UniProt O47881).
T1 construct: The resulting mature protein of 509 amino acids has a calculated molecular mass of 57,837 Da; from tissue; host or cells: cauliflower florets (mitochondrial pellet, acetone-precipitated extract; DEAE, Phenyl Sepharose and Sephacryl gel filtration fractions)
T1 sequence (O47881 92-600): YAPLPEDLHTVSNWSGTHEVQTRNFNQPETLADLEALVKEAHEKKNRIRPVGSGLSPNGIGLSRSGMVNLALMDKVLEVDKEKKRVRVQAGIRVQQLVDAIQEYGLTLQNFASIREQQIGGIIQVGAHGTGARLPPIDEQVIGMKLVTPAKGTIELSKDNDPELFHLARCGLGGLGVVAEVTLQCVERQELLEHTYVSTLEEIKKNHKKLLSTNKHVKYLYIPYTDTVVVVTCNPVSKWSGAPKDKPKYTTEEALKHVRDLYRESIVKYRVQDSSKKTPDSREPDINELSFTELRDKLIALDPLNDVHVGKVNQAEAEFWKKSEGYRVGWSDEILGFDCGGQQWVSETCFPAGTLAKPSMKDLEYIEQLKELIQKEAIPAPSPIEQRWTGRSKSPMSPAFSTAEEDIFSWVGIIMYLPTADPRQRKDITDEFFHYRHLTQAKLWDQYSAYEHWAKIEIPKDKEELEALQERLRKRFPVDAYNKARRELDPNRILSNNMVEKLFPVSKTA
The experiment in a line: GLDase activity in the presence of lycorine (reduction of cytochrome c, absorption at 550 nm). The class given is biochemical, cauliflower (Brassica olecera var. botrytis). More on the design: Activity of the enzyme expressed in increase in absorption at 550 nm/second: scale not given here. The method, then:
The GLDase activity of the fractions was is determined spectrophotometrically by monitoring the L-galactono-γ-lactone dehydrogenase-dependent reduction of cytochrome c at 22° C. A typical reaction mixture contained the enzyme extract, 1.5 mg/ml cytochrome c and 4.2 mM L-galactono-γ-lactone in 0.05 M Tris-HCl buffer (pH 8.4). Reduction of cytochrome c was monitored by determining the absorption increase at 550 nm. Under these conditions the speed of the reaction was linear in respect of time for an initial period of 15 minutes. One unit of enzyme activity was defined as the quantity of enzyme reducing 2 μmol of cytochrome C per minute.
Lycorine was isolated from the plant Crinum asiaticum and the identity of the isolated product was verified by NMR, electron spray mass spectrometry HPLC analysis and capillary electrophoresis. Fractions of L-galactono-γ-lactone dehydrogenase activity isolated from the gel filtration column were tested for their activity in two different buffers in the presence of 5 or 50 μM lycorine (see table 3).

Assay [2] has as its system ascorbic acid synthesis. To be noted: literature statement; cited from earlier work.
In assay [3] the target is T2, L-galactono-γ-lactone dehydrogenase (Arabidopsis thaliana, UniProt Q9SU56).
T2 sequence (Q9SU56 102-610): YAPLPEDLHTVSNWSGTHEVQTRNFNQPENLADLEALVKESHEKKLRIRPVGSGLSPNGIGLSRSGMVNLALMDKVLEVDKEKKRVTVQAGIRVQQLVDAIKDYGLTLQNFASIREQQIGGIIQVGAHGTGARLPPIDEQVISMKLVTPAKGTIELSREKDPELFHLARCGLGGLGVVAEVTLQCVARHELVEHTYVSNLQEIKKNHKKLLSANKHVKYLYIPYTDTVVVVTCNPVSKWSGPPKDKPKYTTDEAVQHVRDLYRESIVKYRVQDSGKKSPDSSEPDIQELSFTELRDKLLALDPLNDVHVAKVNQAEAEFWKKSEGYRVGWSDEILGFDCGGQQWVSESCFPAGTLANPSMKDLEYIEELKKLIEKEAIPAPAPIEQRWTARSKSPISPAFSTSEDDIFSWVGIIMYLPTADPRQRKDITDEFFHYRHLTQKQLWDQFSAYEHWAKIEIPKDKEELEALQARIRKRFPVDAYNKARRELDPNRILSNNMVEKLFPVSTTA
To be noted: literature (De Tullio et al. 1994; Arrigoni et al. 1996); cited from earlier work.

Each structure is given as a SMILES string.

On to `O[C@H]1[C@H]2c3cc4c(cc3CN3CCC(=C[C@@H]1O)[C@H]23)OCO4` [lycorine], for which the “Activity of the enzyme expressed in increase in absorption at 550 nm/second” value in assay [1] (5 μM lycorine, 75 mM PO4 pH 7.0, 0 μM control 0.980) is given as 0.857 absorption at 550 nm/second; in assay [1] (5 μM lycorine, 75 mM PO4 pH 7.5, 0 μM control 1.385) it was 1.372 absorption at 550 nm/second; in assay [1] (5 μM lycorine, 75 mM PO4 pH 8, 0 μM control 1.882), 1.690 absorption at 550 nm/second; in assay [1] (5 μM lycorine, 75 mM Tris pH 7.4, 0 μM control 3.627), 3.927 absorption at 550 nm/second; in assay [1] (5 μM lycorine, 75 mM Tris pH 8.2, 0 μM control 6.365) it was 6.400 absorption at 550 nm/second; in assay [1] (5 μM lycorine, 75 mM Tris pH 8.9, 0 μM control 5.438), 5.199 absorption at 550 nm/second. For the same molecule, the “Activity of the enzyme expressed in increase in absorption at 550 nm/second” value is 0.842 absorption at 550 nm/second in assay [1] (50 μM lycorine, 75 mM PO4 pH 7.0, 0 μM control 0.980); 1.254 absorption at 550 nm/second in assay [1] (50 μM lycorine, 75 mM PO4 pH 7.5, 0 μM control 1.385); 1.768 absorption at 550 nm/second in assay [1] (50 μM lycorine, 75 mM PO4 pH 8, 0 μM control 1.882); 3.743 absorption at 550 nm/second in assay [1] (50 μM lycorine, 75 mM Tris pH 7.4, 0 μM control 3.627); 6.127 absorption at 550 nm/second in assay [1] (50 μM lycorine, 75 mM Tris pH 8.2, 0 μM control 6.365); 5.507 absorption at 550 nm/second in assay [1] (50 μM lycorine, 75 mM Tris pH 8.9, 0 μM control 5.438). In addition, in assay [1] (100 μM lycorine, additional tests), the “Effect on GLDase activity” value was “did not show a decrease in activity”. For the same molecule, in assay [1] (pre-incubation of one hour of the enzyme with lycorine), the “Effect on GLDase activity after pre-incubation” value was “did not influence the enzyme activity”. In assay [1] (up to a concentration of 50 μM), the “Sensitivity of the isolated GLDase to lycorine” value is recorded as “lycorine-insensitive”. The “Concentration at which ascorbic acid synthesis is inhibited” value in assay [2] was ≥ 1 µM. For the same molecule, the “Inhibition of L-galactono-γ-lactone dehydrogenase” value in assay [3] was “inhibited”.
